According to ChEMBL document CHEMBL4483862, “Open-source discovery of chemical leads for next-generation chemoprotective antimalarials” (2018):

Test system: Plasmodium berghei
Assay: Luciferase/luciferin-expressing antifolate-resistant parasites were used to infect a culture of HepG2 cells that were pre-incubated with compounds. Infected hepatocytes emit light due to the luciferase reaction. Assay results are presented as the percent inhibition of light emission compared to control. […]
Assay type: functional
Details: sporozoite; for IC50: read-out: LUCIFERASE INFECTION ASSAY - IC50; for IC90: read-out: LUCIFERASE INFECTION ASSAY - IC90

SMILES	IC50 [µM]	IC90 [µM]
Cc1ccc(-c2nc(C(=O)NCCCN(C)C)cc3c2[nH]c2ccccc23)cc1	> 8.54	> 8.54
CN(/N=C/c1cc(Cl)cc(Cl)c1O)C(=S)NC(C)(C)C	> 9.87	> 9.87
Cc1ccc(-n2c(-c3ccc(Cl)c(C)c3)csc2=N)c(C)c1	> 9.03	> 9.03
COc1cccc(/C=C2\Oc3c(CN4CCN(C)CC4)c(O)cc(C)c3C2=O)c1	> 8.37	> 8.37
Cc1cccc(N2CCN(c3cc(C)nc4c(-c5ccccc5)c(C)nn34)CC2)n1	> 8.28	> 8.28
CC(C)Oc1cccc(C(=O)N2C(C)CCCC2C)c1 (stereo not drawn)	> 12	> 12
Cc1ccc2c(Cl)c(C(=O)Nc3nonc3-c3ccc(F)cc3)sc2c1	1.77	3.32
O=C1OC(c2ccccc2)=N/C1=C\c1ccc([N+](=O)[O-])s1	> 11	> 11
Cc1ccc(C(C)C)c(OCc2nnnn2-c2ccc(Br)cc2)c1	4.96	> 8.52
Cc1c(C)n(CCCO)c2ncn3nc(-c4ccc(Cl)cc4)nc3c12	> 9.27	> 9.27
Fc1ccc(COc2ccccc2CNCc2cccnc2)cc1	> 10.2	> 10.2
COc1cccc(-c2cc(=O)n3c(nc4ccccc43)[nH]2)c1	> 11.3	> 11.3
Cc1ccnc(-n2c(C)c(C)c3c2ncn2nc(Cc4ccccc4)nc32)c1	> 8.96	> 8.96
Cc1cc(C)c(O)c(/C=N/NC(=S)NC(C)(C)C)c1	> 11.8	> 11.8
O=C(Nc1ccc(OCc2nnnn2-c2ccccc2)cc1)c1ccccc1	> 8.89	> 8.89
Cc1ccc2c(c1)CCCN2C(=S)Nc1cccc(C(F)(F)F)c1	> 9.42	> 9.42
Cc1cc(C)n(-c2nc(C)c(Br)c(N(C)C)n2)n1	> 10.6	> 10.6
COc1cccc(/C=C2\Oc3cc(O)cc(C)c3C2=O)c1	> 11.7	> 11.7
O=c1c2cc(Br)cc(Br)c2nc(-c2ccccc2)n1-c1cc(C(F)(F)F)cc(C(F)(F)F)c1	> 5.57	> 5.57
O=C(Nc1ccc(F)c(Cl)c1)c1ccc(F)c(Cl)c1	> 10.9	> 10.9
CC(C)(C)c1ccc(C(=O)N/N=C/c2cc(Cl)cc(Cl)c2O)cc1	> 9.03	> 9.03
CC(C(=O)Nc1ccc(O)cc1)c1ccc2c(c1)[nH]c1ccc(Cl)cc12 (stereo not drawn)	> 9.05	> 9.05
O=C(NNC(=S)Nc1cc(C(F)(F)F)cc(C(F)(F)F)c1)c1cccnc1Oc1ccccc1	> 6.59	> 6.59

SMILES	IC50 [µM]	IC90 [µM]
CC(C)[C@H](NS(=O)(=O)c1ccccc1)C(=O)NCc1ccccc1	> 9.53	> 9.53
CN(C)c1ncnc2scc(-c3ccc(Cl)cc3)c12	4.05	> 11.4
Cc1ccc(S(=O)(=O)Oc2ccc(Cl)cc2Sc2cc(Cl)ccc2OS(=O)(=O)c2ccc(C)cc2)cc1	> 5.54	> 5.54
Cc1cc(Oc2ccc(C(F)(F)F)cc2N=CC(C#N)C#N)cc(C)c1Cl	> 8.42	> 8.42
COc1cccc(-c2cc(=O)n(-c3ccc(F)cc3)[nH]2)c1	> 11.6	> 11.6
CCOC(=O)c1c[nH]c2c(F)cc(F)cc2c1=O	> 13	> 13
S=C(Nc1ccc(C2=NCCO2)cc1)Nc1ccc(Cl)c(Cl)c1	> 9.01	> 9.01
CC(C)NCC(=O)Nc1cccc2c1C(=O)c1ccccc1C2=O	8.29	> 10.2
C=CCNC(=O)COc1ccc2c(=O)c(-c3ccc(Cl)cc3)c(C)oc2c1	> 8.6	> 8.6
COc1cccc(CNCCCSc2nnnn2-c2ccccc2)c1	> 9.28	> 9.28
CC(C)(C)NC(=S)N/N=C/c1c(O)ccc2ccccc12	2.97	6.74
COc1ccc(/C=C2\Oc3c(CN(C)C)c(O)cc(C)c3C2=O)cc1	> 9.72	> 9.72
Brc1ccc(OCc2ccccc2)c(CNCc2cccnc2)c1	> 8.61	> 8.61
Fc1ccccc1COc1ccccc1CNCc1cccnc1	> 10.2	> 10.2
Nc1cc(C(F)(F)F)ccc1Oc1ccc(Cl)cc1Cl	> 10.2	> 10.2
CC(C)(C)c1ccc(OS(=O)(=O)c2ccc(Oc3c(Cl)cccc3[N+](=O)[O-])cc2)cc1	> 7.14	> 7.14
Cc1ccc(SCc2ccccc2C(=O)Nc2cc(Cl)ccc2O)cc1	> 8.6	> 8.6
O=C(Nc1ccc(Oc2ccc(OC(F)(F)F)cc2)cc1)Nc1ccc(OC(F)(F)F)cc1	> 6.99	> 6.99
COc1cccc(-n2c(C)cc(C(=O)CSc3ncc(C#N)c(N)n3)c2C)c1	> 8.39	> 8.39
CC(C)(C)NC(=S)Nc1cc(C(F)(F)F)c(Cl)cc1Cl	> 9.56	> 9.56
Cc1nn(-c2ccccc2)nc1C(=O)NNC(=S)Nc1ccc(Cl)cc1	> 8.53	> 8.53
Oc1c(Cl)cc(Cl)cc1C1Nc2cccc3cccc(c23)N1	> 9.96	> 9.96
Cc1c(C(=O)Nc2nonc2-c2ccc3c(c2)CCCC3)oc2ccccc12	> 8.84	> 8.84

SMILES	IC50 [µM]	IC90 [µM]
Cc1c(C)n(Cc2ccccc2)c2ncn3nc(-c4cccnc4)nc3c12	> 9.31	> 9.31
Nc1c(C(=O)Nc2nc3ccccc3s2)sc2ncccc12	0.00465	0.512
Cc1cc(Cl)cc(/C=N/NC(=S)NC(C)(C)C)c1O	3.66	3.97
O=C(c1ccc2cc[nH]c2c1)N1CCN(C/C=C/c2ccccc2)CC1	7.41	9.08
CCCCCc1ccc(NC(=O)NC2=NCCS2)cc1	> 11.3	> 11.3
COc1ccc(C(=O)Nc2nonc2-c2ccc(F)cc2)cc1Cl	3.16	3.66
Cc1nc2c3c(C)c(C)n(C4CCCCCC4)c3ncn2n1	> 11.1	> 11.1
O=C(c1cc2cc(Cl)ccc2o1)N1CCN(Cc2ccc3c(c2)OCO3)CC1	> 8.27	> 8.27
O=C1/C(=C\c2ccccn2)N(CCc2ccccc2)S(=O)(=O)c2ccccc21	> 8.45	> 8.45
Cc1nc(N2CCC(C)CC2)nc2c1C(=O)CC(/C=C/c1ccccc1)C2 (stereo not drawn)	> 9.13	> 9.13
COc1ccc(CCn2c(C)nc3c(cnn3-c3ccccc3)c2=O)cc1	0.489	3.03
Clc1cc(Cl)cc(NCc2ccc3c(c2)OCO3)c1	> 11.1	> 11.1
O=c1[nH]c2ccc(NCc3cc(Cl)ccc3OCc3ccc(F)cc3)cc2[nH]1	> 8.29	> 8.29
N#CC(C#N)C=Nc1cc(C(F)(F)F)ccc1N1CCCC1	> 10.8	> 10.8
CC1CN(S(=O)(=O)c2cc(Cl)c(Oc3ccc([N+](=O)[O-])cc3Cl)c(Cl)c2)CC(C)O1 (stereo not drawn)	> 6.66	> 6.66
CCOC(=O)c1cc(C#N)c(C)nc1Sc1ccccc1NC(=O)Nc1ccc(SC(F)(F)F)cc1	> 6.2	> 6.2
COc1ccc(-c2nc(C(=O)NC3CCCC3)cc3c2[nH]c2ccccc23)cc1	8.53	> 8.56
Cc1cccc(OCc2nnnn2-c2ccc(Br)cc2)c1	> 9.56	> 9.56
Cc1cc(O)cc2c1C(=O)/C(=C/c1ccc(F)cc1)O2	> 12.2	> 12.2
CC(C)(C)c1ccc(NC(=O)N2CCCN(Cc3ccccc3)CC2)cc1	8.75	> 9.03
Cc1cc(NC(=S)NNC(=O)c2cccnc2Oc2ccccc2)ccc1Br	> 7.22	> 7.22
C/C(=N\NC(=S)NCC(C)(C)C)c1cc(F)ccc1O	> 11.1	> 11.1
Cn1c(CNC(=O)c2ccc(Cl)cc2)nc2ccccc21	> 11	> 11

SMILES	IC50 [µM]	IC90 [µM]
O=C(NNC(=S)Nc1ccc(Cl)c(Cl)c1)c1cccnc1Oc1ccccc1	> 7.62	> 7.62
Cc1cc(Oc2ccc(C(F)(F)F)cc2NS(=O)(=O)c2cc(C(F)(F)F)cc(C(F)(F)F)c2)cc(C)c1Cl	> 5.58	> 5.58
Clc1ccccc1COc1ccccc1CNCc1cccnc1	> 9.74	> 9.74
Cc1c(C)n(CC(C)C)c2ncnc(Nc3nccs3)c12	> 10.9	> 10.9
CCOC(=O)c1cnc2cc(Cl)c(F)cc2c1Sc1ccc(Cl)cc1	> 8.33	> 8.33
O=C1/C(=C\c2ccccn2)N(Cc2ccccc2)S(=O)(=O)c2ccccc21	2.87	5.19
CC1Cc2nc(N)nc(N)c2CC1C (stereo not drawn)	> 17.2	> 17.2
O=C(Nc1ccc(F)c(Cl)c1)c1cc2ccccc2s1	> 10.8	> 10.8
COc1ccc(OC)c(C(=O)c2oc3cc(NC(=O)C4CC4)ccc3c2C)c1	0.214	0.519
COc1ccccc1N1CCN(C(=O)c2cc3cc(Cl)ccc3o2)CC1	> 8.9	> 8.9
COc1ccc(S(=O)(=O)N2CCN(c3cc(C)c4ccccc4n3)CC2)cc1	> 8.3	> 8.3
O=C(c1c[nH]c2ccccc12)N1CCC(Cc2ccccc2)CC1	> 10.4	> 10.4
CC(C)(C)NC(=S)N/N=C/c1cccc(O)c1O	> 12.3	> 12.3
Cc1c(C)n(Cc2ccccc2)c2ncn3nc(-c4ccccn4)nc3c12	> 9.31	> 9.31
S=c1[nH]nc(-c2cccnc2Oc2ccccc2)n1-c1ccc(Cl)c(Cl)c1	> 7.95	> 7.95
COc1cc(NS(=O)(=O)c2ccc3ccccc3c2)c(OC)cc1Cl	2.78	4.48
O=[N+]([O-])c1ccc(CSc2nc3cc(Cl)c(F)cc3[nH]2)cc1	> 7.88	> 7.88
CCc1nnc(NC(=O)C2CCCN2S(=O)(=O)c2ccc(OC)cc2)s1 (stereo not drawn)	4.85	> 8.32
CC(c1ccc(-c2ccccc2)c(F)c1)c1nn2c(-c3ccco3)nnc2s1 (stereo not drawn)	0.85	2.45
O=C1C(=O)N(CCN2CCCCC2)c2ccc(F)cc21	> 11.9	> 11.9
